Columns and labels:
FLT-3 kinase = target: T1, FLT-3 kinase (Homo sapiens, UniProt P36888); test: FLT-3 kinase DELFIA assay (HTScan FLT-3 Kinase Assay Kit); type: biochemical; settings: 20 uM ATP
T1 construct: human FLT-3 (Arg571-Ser993); GST (N); purchased Cell Signaling Technology HTScan FLT-3 Kinase Assay Kit; host or cells: baculovirus expression system
T1 sequence (P36888 571-993): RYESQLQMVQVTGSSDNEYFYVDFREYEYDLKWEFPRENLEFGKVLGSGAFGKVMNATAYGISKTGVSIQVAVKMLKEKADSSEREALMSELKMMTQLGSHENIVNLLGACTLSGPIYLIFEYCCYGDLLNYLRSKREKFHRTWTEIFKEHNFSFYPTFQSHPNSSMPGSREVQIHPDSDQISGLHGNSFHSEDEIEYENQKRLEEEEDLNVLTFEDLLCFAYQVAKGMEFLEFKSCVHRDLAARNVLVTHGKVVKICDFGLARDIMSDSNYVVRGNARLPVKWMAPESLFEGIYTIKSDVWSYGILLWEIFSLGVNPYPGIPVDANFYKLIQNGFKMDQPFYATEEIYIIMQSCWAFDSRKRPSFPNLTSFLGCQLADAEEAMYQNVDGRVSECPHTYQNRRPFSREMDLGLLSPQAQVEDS

KDR kinase = target: T2, KDR kinase (Homo sapiens, UniProt P35968); test: KDR kinase DELFIA assay (HTScan VEGFR-2 Kinase Assay Kit); type: biochemical; settings: 20 uM ATP
T2 construct: human VEGFR-2 (Val789-Val1356); GST (N); purchased Cell Signaling Technology HTScan VEGFR-2 Kinase Assay Kit; host or cells: baculovirus expression system
Procedure: Azaazulene Compounds of this invention were treated for their efficacy in inhibiting activities of FLT-3, c-KIT and KDR kinases by biochemical DELFIA (Dissociation Enhanced Lanthanide FIA) assays according to the procedure described below. The assays were conducted by, Division of Cell Engineering, Biomedical Engineering Research Laboratories, Industrial Technology Research Institute, Bldg. 53, 195, sec. 4, Chung Hsing Rd. Chutung, Hsinchu, Taiwan 310, R.O.C.
The KDR assay was conducted following the protocol described in Protocol for HTScan™ VEGFR-2 Kinase Assay Kit (Cell Signaling Technology™).

AMPK A1/B1/G1 = AMPK A1/B1/G1 (Homo sapiens, UniProt Q13131); test: Kinase panel assay (SelectScreen Kinase Profiling, Invitrogen); type: biochemical; settings: 1000 nM of compound B26
Procedure: (§1) The kinase panel assay of compound B26 of this invention was performed by SelectScreen® Kinase Profiling Services of Invitrogen. The inhibitory effects of 1000 nM of compound B26 against various kinases whom shown >50% inhibitory effects are summarized in following Table 5.

AMPK A2/B1/G1 = AMPK A2/B1/G1 (Homo sapiens, UniProt P54646); test: as above; type: biochemical; settings: 1000 nM of compound B26
Procedure: as §1

BLK = BLK (Homo sapiens, UniProt P51451); test: as above; type: biochemical; settings: 1000 nM of compound B26
Procedure: as §1

FGFR1 = FGFR1 (Homo sapiens, UniProt P11362); test: as above; type: biochemical; settings: 1000 nM of compound B26
Procedure: as §1

FGFR2 = FGFR2 (Homo sapiens, UniProt P21802); test: as above; type: biochemical; settings: 1000 nM of compound B26
Procedure: as §1

FGFR3 = FGFR3 (Homo sapiens, UniProt P22607); test: as above; type: biochemical; settings: 1000 nM of compound B26
Procedure: as §1

FGR = FGR (Homo sapiens, UniProt P09769); test: as above; type: biochemical; settings: 1000 nM of compound B26
Procedure: as §1

FLT3 = FLT3 (Homo sapiens, UniProt P36888); test: as above; type: biochemical; settings: 1000 nM of compound B26
Procedure: as §1

LCK = LCK (Homo sapiens, UniProt P06239); test: as above; type: biochemical; settings: 1000 nM of compound B26
Procedure: as §1

LYN A = LYN A (Homo sapiens, UniProt P07948); test: as above; type: biochemical; settings: 1000 nM of compound B26
Procedure: as §1

LYN B = LYN B (Homo sapiens, UniProt P07948); test: as above; type: biochemical; settings: 1000 nM of compound B26
Procedure: as §1

MAP4K5 (KHS1) = MAP4K5 (KHS1) (Homo sapiens, UniProt Q9Y4K4); test: as above; type: biochemical; settings: 1000 nM of compound B26
Procedure: as §1

NTRK2 (TRKB) = NTRK2 (TRKB) (Homo sapiens, UniProt Q16620); test: as above; type: biochemical; settings: 1000 nM of compound B26
Procedure: as §1

NTRK3 (TRKC) = NTRK3 (TRKC) (Homo sapiens, UniProt Q16288); test: as above; type: biochemical; settings: 1000 nM of compound B26
Procedure: as §1

PHKG1 = PHKG1 (Homo sapiens, UniProt Q16816); test: as above; type: biochemical; settings: 1000 nM of compound B26
Procedure: as §1

RET = RET (Homo sapiens, UniProt P07949); test: as above; type: biochemical; settings: 1000 nM of compound B26
Procedure: as §1

RET Y791F = RET Y791F (Homo sapiens, UniProt P07949, Y791F); test: as above; type: biochemical; settings: 1000 nM of compound B26
Procedure: as §1

SRC = SRC (Homo sapiens, UniProt P12931); test: as above; type: biochemical; settings: 1000 nM of compound B26
Procedure: as §1

STK4 (MST1) = STK4 (MST1) (Homo sapiens, UniProt Q13043); test: as above; type: biochemical; settings: 1000 nM of compound B26
Procedure: as §1

YES1 = YES1 (Homo sapiens, UniProt P07947); test: as above; type: biochemical; settings: 1000 nM of compound B26
Procedure: as §1

[1] = test system: MV4-11 (FLT3-ITD) subcutaneous tumor xenograft; test: MV4-11 subcutaneous tumor xenograft model; type: in vivo, BALB/c nude mice; settings: for tumor complete regression of all mouse: oral gavage
Procedure: The procedures for establishing tumor xenografts and the dosing of B26 were carried out and accordance with ITRI institutional animal care and use committee in an IACUC. Female BALB/c nude mice (6 to 8 weeks old) were purchased from BioLASCO Co., Ltd. (Taipei, Taiwan). Female BALB/c nude mice were implanted subcutaneously in the right flank with 1×10^7 MV4-11 (FLT3-ITD) cells per mice. Treatments were initiated when tumors were 150 to 200 mm^3 in size. Mice were randomly assigned into cohorts (typically 4 mice per group for efficacy studies). B26 (50 and 150 mg/kg, bid.) and vehicle were given via oral gavage for 14 days from the 16th day after inoculation. Tumor volumes were assessed everyday and body weights were assessed two times weekly. Caliper measurements of tumors were converted into mean tumor volume using the formula: 0.5×[length×(width)^2].
Compound B26 of this invention is a novel and potent FLT3 inhibitor with promising anti-tumor and anti-leukemia activity.

T2 sequence (P35968 789-1356): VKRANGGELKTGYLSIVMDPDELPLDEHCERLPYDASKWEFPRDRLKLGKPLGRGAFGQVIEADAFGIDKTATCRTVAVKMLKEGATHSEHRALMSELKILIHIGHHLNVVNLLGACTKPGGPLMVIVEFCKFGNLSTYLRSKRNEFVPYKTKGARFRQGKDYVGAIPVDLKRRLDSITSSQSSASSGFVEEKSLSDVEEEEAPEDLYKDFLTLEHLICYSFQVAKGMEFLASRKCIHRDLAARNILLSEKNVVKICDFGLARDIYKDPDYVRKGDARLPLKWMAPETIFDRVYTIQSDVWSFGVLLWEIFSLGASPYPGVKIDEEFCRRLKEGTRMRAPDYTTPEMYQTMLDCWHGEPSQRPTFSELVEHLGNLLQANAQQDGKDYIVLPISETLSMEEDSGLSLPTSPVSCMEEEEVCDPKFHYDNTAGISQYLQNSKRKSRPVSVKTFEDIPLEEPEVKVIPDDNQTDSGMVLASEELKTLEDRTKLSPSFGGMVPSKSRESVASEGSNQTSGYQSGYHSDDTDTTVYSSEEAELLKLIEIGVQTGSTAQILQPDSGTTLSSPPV
Chain of BLK (P51451 whole entry): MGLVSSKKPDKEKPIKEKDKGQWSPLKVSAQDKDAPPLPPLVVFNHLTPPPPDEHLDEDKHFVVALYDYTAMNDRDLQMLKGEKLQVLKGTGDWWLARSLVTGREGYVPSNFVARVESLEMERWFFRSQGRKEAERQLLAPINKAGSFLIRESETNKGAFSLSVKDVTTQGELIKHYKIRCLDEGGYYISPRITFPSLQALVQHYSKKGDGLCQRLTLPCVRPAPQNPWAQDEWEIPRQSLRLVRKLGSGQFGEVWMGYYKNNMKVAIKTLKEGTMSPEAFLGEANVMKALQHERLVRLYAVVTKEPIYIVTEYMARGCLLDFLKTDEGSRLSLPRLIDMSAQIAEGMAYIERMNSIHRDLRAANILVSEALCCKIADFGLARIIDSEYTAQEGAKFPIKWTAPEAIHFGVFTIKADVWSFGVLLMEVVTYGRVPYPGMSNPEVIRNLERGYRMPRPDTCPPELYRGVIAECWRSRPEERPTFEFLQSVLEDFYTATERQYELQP
Chain of MAP4K5 (KHS1) (Q9Y4K4 whole entry): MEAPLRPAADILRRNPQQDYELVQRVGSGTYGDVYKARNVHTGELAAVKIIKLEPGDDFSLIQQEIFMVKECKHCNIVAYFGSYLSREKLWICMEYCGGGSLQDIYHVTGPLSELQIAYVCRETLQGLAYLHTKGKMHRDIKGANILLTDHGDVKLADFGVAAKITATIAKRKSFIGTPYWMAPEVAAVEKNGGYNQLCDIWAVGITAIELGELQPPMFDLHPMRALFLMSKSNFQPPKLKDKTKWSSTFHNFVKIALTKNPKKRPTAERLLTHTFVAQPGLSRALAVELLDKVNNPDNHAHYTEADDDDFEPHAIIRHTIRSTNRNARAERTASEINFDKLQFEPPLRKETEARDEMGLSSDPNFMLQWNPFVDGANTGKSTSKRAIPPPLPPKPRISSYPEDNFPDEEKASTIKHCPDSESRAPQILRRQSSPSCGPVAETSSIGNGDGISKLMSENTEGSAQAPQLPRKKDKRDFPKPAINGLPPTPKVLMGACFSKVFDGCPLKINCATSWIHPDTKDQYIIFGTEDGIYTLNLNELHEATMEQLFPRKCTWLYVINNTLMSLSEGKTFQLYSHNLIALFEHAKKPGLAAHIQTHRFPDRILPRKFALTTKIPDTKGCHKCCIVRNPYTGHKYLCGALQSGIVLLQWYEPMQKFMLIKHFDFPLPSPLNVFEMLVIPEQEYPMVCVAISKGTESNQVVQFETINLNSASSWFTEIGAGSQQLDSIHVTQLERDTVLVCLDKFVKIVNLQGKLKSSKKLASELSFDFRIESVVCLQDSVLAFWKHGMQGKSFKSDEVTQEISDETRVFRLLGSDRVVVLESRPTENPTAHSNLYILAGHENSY
Chain of LYN B (P07948 1-491 isoform P07948-2): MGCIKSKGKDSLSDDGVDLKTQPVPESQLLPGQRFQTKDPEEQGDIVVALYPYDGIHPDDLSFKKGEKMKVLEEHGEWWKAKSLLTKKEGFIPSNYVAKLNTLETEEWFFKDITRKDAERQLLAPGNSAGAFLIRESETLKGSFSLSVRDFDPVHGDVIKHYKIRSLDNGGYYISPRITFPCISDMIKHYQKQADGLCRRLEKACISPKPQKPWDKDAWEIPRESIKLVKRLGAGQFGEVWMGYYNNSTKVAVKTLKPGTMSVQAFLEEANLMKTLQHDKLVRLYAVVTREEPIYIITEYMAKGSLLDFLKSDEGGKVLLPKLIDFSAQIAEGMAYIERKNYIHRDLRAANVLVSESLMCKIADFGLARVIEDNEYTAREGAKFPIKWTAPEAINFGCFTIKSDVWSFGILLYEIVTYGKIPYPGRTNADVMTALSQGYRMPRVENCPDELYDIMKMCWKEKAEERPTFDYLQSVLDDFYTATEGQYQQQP
Chain of NTRK3 (TRKC) (Q16288 32-839): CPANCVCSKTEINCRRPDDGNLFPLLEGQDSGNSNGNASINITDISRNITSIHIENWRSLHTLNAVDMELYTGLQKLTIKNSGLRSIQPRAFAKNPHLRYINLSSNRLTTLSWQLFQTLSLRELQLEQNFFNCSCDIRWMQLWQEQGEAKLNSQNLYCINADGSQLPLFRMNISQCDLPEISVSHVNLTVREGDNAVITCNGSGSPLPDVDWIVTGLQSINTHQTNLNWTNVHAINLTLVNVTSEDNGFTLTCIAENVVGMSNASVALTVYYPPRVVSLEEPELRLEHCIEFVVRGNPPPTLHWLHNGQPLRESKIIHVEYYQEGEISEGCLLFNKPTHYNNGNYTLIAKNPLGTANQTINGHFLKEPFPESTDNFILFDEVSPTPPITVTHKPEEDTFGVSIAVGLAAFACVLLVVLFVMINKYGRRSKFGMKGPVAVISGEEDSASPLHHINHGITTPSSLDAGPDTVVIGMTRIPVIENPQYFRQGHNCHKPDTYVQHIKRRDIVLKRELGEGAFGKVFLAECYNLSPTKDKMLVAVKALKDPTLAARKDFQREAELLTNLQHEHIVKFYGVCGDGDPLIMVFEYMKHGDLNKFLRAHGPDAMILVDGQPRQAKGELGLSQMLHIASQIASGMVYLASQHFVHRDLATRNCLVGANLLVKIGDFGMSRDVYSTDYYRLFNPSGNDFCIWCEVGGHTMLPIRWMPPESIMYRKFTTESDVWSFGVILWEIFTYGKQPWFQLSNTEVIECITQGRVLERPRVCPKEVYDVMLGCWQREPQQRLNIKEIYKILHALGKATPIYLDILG
Chain of YES1 (P07947 whole entry): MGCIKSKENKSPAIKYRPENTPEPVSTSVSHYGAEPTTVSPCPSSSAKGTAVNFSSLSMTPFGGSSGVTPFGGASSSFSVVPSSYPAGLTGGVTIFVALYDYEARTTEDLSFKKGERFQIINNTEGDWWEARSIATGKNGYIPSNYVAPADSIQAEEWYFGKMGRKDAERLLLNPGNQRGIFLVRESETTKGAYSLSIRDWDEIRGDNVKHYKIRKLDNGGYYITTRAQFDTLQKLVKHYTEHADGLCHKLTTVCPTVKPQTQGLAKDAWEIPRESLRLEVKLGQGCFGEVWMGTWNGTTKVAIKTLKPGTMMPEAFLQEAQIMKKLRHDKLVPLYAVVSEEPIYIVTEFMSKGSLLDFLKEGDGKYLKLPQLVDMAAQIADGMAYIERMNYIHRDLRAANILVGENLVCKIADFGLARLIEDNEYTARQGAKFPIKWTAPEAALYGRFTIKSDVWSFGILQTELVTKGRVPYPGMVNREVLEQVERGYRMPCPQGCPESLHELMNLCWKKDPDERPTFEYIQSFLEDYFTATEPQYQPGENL
Chain of RET (P07949 29-1114): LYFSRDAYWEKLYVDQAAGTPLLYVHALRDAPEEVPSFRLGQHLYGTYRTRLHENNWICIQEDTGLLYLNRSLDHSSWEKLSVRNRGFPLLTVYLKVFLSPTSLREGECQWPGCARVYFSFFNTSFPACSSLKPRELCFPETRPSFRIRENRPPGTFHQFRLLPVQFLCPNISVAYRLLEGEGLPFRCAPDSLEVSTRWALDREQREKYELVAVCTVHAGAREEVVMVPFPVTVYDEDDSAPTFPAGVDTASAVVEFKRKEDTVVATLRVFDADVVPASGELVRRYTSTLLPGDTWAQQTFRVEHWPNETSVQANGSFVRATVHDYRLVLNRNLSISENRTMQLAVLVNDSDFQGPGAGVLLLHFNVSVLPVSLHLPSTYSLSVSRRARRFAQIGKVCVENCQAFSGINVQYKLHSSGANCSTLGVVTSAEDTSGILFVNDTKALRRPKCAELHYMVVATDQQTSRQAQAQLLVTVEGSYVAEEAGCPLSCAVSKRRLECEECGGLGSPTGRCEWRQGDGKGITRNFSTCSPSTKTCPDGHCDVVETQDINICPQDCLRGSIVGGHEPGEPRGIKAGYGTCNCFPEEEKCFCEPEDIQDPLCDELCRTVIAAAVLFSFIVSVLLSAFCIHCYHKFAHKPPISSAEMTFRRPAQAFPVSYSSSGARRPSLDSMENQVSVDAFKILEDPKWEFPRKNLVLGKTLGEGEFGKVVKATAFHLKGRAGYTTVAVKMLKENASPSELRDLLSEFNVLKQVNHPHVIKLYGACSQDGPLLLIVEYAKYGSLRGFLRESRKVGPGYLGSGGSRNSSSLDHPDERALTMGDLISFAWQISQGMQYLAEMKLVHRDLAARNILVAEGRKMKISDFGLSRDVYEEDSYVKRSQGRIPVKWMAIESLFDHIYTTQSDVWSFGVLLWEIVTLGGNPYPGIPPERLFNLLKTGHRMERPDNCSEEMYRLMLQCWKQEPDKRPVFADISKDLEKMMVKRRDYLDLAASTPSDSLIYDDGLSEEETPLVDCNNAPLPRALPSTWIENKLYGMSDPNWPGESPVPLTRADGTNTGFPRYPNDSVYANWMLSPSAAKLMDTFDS
Chain of RET Y791F (P07949 29-1114 Y791F): as the sequence (P07949 29-1114) above, with Y763F counted along it

Compound: CN1CCN(c2ccc3[nH]c(-c4c5cccccc-5[nH]c4=O)nc3c2)CC1 [Compound B26]
- inhibition at 0.1 µM (FLT-3 kinase; 0.1 uM compound): 45.6%
- inhibition at 1 µM (FLT-3 kinase; 1 uM compound): 91.2%
- inhibition at 0.1 µM (KDR kinase; 0.1 uM compound, read-out: Kinases inhibitory activities against KDR kinase, 0.1 uM): 71.3%
- inhibition at 1 µM (KDR kinase; 1 uM compound, read-out: Kinases inhibitory activities against KDR kinase, 1 uM): 96.9%
- inhibition at 1 µM (AMPK A1/B1/G1): 88%
- inhibition at 1 µM (AMPK A2/B1/G1): 70%
- inhibition at 1 µM (BLK): 52%
- inhibition at 1 µM (FGFR1): 54%
- inhibition at 1 µM (FGFR2): 48%
- inhibition at 1 µM (FGFR3): 62%
- inhibition at 1 µM (FGR): 69%
- inhibition at 1 µM (FLT3): 95%
- inhibition at 1 µM (LCK): 63%
- inhibition at 1 µM (LYN A): 57%
- inhibition at 1 µM (LYN B): 51%
- inhibition at 1 µM (MAP4K5 (KHS1)): 60%
- inhibition at 1 µM (NTRK2 (TRKB)): 84%
- inhibition at 1 µM (NTRK3 (TRKC)): 76%
- inhibition at 1 µM (PHKG1): 53%
- inhibition at 1 µM (RET): 81%
- inhibition at 1 µM (RET Y791F): 79%
- inhibition at 1 µM (SRC): 50%
- inhibition at 1 µM (STK4 (MST1)): 59%
- inhibition at 1 µM (YES1): 73%
- tumor complete regression of all mouse ([1]; 50 mg/kg (bid)): 9 days
- tumor complete regression of all mouse ([1]; 150 mg/kg (bid)): 7 days
- antitumor effect ([1]; oral, 50 or 150 mg/kg bid for 14 days): potent and significant antitumor effect in a dose-dependent manner

From patent US8492374B2, “Azaazulene compounds” (Industrial Technology Research Institute, priority 2009, dated 2013)
